Data published in patent US20180194762A1 (Pharmacyclics LLC, priority 2017, published 2018).
Read-outs that look alike come from different tables or passages of the source.

What was measured:
Format in all cases: biochemical
Btk = target: T1, Btk (Homo sapiens, UniProt Q06187); experiment: Btk in vitro inhibitory activity (one of Method A TR-FRET, Method B electrophoretic mobility shift, Method C radiometric filter binding)
T1 construct: purified from insect cells as a full-length construct containing a N-terminal 6X-His tag; His6 (N); made in house; host or cells: insect cells (Method C)
Summary of the method: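 Three alternative formats were used. A radiometric filter-binding read used 8 nM full-length His-BTK with 0.2 mg/mL poly(Glu-Tyr) 4:1 (C); microfluidic separation of 1 μM FAM-peptide by 1 nM BTK gave IC50 from 12-point curves (B); TR-FRET at Km ATP, 0.5 nM Btk, gave Ki(app)-derived IC50 (A).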

panel of kinases = target: T2, panel of kinases (Homo sapiens, UniProt P51813); experiment: Inhibition of a panel of kinases (in vitro HotSpot kinase assay, 33P-ATP, 1 μM ATP), other kinases; settings: BMX wild-type, read-out: BMX-WT IC50
T2 sequence (P51813 1-675): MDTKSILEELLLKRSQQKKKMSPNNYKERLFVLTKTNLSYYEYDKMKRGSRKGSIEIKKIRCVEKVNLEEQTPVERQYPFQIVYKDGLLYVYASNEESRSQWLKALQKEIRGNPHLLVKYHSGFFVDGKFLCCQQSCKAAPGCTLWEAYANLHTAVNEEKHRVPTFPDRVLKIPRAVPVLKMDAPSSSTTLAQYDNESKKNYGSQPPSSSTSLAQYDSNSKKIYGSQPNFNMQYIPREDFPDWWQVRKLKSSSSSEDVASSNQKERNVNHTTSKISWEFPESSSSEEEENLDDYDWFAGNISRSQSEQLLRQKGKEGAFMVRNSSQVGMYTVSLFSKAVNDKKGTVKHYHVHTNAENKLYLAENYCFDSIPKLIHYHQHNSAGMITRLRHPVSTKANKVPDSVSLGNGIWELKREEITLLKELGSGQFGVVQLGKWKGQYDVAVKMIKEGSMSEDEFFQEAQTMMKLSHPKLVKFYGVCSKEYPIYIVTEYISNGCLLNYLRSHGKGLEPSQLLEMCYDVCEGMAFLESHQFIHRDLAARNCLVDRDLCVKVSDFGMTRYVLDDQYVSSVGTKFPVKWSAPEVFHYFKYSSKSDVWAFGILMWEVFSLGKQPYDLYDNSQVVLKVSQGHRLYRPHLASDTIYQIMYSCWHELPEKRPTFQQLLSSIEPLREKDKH
Summary of the method: (§1)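 Radiometric read-out: 33P transfer to a suitable substrate by each purified enzyme, ATP at 1 μM. Values are degree of inhibition.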

TEC = target: T3, TEC (Homo sapiens, UniProt P42680); experiment: Inhibition of a panel of kinases (in vitro HotSpot kinase assay, 33P-ATP, 1 μM ATP); settings: for IC50: HotSpot kinase assay, 1 μM ATP; for TEC/Btk: ratio of TEC IC50 to Btk IC50 (selectivity)
T3 sequence (P42680 1-631): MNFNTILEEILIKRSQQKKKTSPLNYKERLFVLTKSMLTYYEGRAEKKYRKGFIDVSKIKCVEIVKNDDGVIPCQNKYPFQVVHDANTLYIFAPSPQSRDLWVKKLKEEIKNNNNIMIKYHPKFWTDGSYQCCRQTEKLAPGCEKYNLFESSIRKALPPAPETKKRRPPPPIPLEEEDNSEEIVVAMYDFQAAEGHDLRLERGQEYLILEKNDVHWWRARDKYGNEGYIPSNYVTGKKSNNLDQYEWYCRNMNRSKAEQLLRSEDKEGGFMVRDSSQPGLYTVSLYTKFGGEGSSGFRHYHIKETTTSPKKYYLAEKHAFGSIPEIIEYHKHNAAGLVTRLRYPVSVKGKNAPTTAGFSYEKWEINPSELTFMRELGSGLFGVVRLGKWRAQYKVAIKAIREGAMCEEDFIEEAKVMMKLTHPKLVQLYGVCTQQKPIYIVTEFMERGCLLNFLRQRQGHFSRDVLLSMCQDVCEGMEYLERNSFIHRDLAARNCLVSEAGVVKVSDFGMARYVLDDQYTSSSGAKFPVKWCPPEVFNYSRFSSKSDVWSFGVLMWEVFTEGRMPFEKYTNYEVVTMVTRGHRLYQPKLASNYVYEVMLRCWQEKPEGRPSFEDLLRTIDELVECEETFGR
Summary of the method: as §1

[1] = wild-type Btk, read-out: Btk-WT IC50
[2] = method is one of A, B or C, not stated which, read-out: IC50 values against Btk

T1 sequence (Q06187 whole entry): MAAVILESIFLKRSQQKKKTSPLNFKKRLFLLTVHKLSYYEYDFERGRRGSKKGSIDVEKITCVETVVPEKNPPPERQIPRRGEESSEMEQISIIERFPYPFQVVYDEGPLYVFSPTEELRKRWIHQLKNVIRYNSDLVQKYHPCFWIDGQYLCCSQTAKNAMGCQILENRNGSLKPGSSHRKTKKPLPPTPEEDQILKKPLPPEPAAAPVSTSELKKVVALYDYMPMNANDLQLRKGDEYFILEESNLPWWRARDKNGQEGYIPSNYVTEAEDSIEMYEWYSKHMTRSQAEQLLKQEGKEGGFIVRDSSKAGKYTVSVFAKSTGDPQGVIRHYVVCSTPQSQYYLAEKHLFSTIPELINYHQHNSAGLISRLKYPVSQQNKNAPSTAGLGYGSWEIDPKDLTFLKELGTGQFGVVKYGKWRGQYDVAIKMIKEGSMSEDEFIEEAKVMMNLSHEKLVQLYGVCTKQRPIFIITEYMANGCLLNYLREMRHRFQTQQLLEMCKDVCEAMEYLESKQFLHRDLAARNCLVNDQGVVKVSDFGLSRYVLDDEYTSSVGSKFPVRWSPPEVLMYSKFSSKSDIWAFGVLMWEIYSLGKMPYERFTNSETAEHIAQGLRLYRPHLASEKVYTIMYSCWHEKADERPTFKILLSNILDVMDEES

Row | Structure (SMILES) | IC50 (Btk; [1]) [nM] | IC50 (panel of kinases) [nM] | IC50 (TEC) [nM] | TEC/Btk (TEC) | IC50 (Btk; [2]) [nM]
1 | C=CC(=O)N1CC[C@@H](Nc2n[nH]c3nccc(-c4ccc([C@H](C)NC(=O)c5noc(C(C)(C)C)n5)cc4)c23)C1 [Example 95, 5-tert-butyl-N-[(1S)-1-[4-(3-{[(3R)-1-(prop-2-enoyl)pyrrolidin-3-yl]amino}-1H-pyrazolo[3,4-b]pyridin-4-yl)phenyl]ethyl]-1,2,4-oxadiazole-3-carboxamide] | 67.9 | 774 | 924 | 14 | 
2 | C=CC(=O)N1CC[C@@H](Nc2n[nH]c3nccc(-c4ccc([C@H](C)NC(=O)c5ccc(C(C)(C)C)cc5)cc4)c23)C1 [Example 97, 4-tert-butyl-N-[(1S)-1-[4-(3-{[(3R)-1-(prop-2-enoyl)pyrrolidin-3-yl]amino}-1H-pyrazolo[3,4-b]pyridin-4-yl)phenyl]ethyl]benzamide] | 309 | 709 | 1570 | 5 | 
3 | C=CC(=O)N1CC[C@@H](Nc2n[nH]c3nccc(-c4ccc([C@@H](C)NC(=O)c5noc(C(C)(C)C)n5)cc4)c23)C1 [Example 98, 5-tert-butyl-N-[(1R)-1-[4-(3-{[(3R)-1-(prop-2-enoyl)pyrrolidin-3-yl]amino}-1H-pyrazolo[3,4-b]pyridin-4-yl)phenyl]ethyl]-1,2,4-oxadiazole-3-carboxamide] | 0.165 | 239 | 108 | 652 | < 10
4 | CC(C)(C)c1ccc(C(=O)NCc2ccc(-c3ccnc4[nH]nc(N5CC[C@@H](N)C5)c34)cc2F)cc1 [Example 100, N-[(4-{3-[(3R)-3-aminopyrrolidin-1-yl]-1H-pyrazolo[3,4-b]pyridin-4-yl}-2-fluorophenyl)methyl]-4-tert-butylbenzamide] | 13.8 | 1890 | 2970 | 215 | 
5 | C=CC(=O)N[C@@H]1CCN(c2n[nH]c3nccc(-c4ccc(CNC(=O)c5ccc(C(C)(C)C)cc5)c(F)c4)c23)C1 [Example 101, 4-tert-butyl-N-[(2-fluoro-4-{3-[(3R)-3-(prop-2-enamido)pyrrolidin-1-yl]-1H-pyrazolo[3,4-b]pyridin-4-yl}phenyl)methyl]benzamide] | 0.22 | 122 | 96 | 434 | < 10
6 | C=CC(=O)N[C@@H]1CCN(c2n[nH]c3nccc(-c4ccc(CNC(=O)c5noc(C(C)(C)C)n5)c(F)c4)c23)C1 [Example 102, 5-tert-butyl-N-[(2-fluoro-4-{3-[(3R)-3-(prop-2-enamido)pyrrolidin-1-yl]-1H-pyrazolo[3,4-b]pyridin-4-yl}phenyl)methyl]-1,2,4-oxadiazole-3-carboxamide] | 0.0652 | 33 | 20 | 305 | < 10
7 | CC(C)(C)c1ccc(C(=O)NCc2ccc(-c3ccnc4[nH]nc(NC5CCNCC5)c34)cc2F)cc1 [Example 103, 4-tert-butyl-N-[(2-fluoro-4-{3-[(piperidin-4-yl)amino]-1H-pyrazolo[3,4-b]pyridin-4-yl}phenyl)methyl]benzamide] | 172 | 4440 | > 10000 | >100 | 
8 | C=CC(=O)N1CCC(Nc2n[nH]c3nccc(-c4ccc(CNC(=O)c5ccc(C(C)(C)C)cc5)c(F)c4)c23)CC1 [Example 104, 4-tert-butyl-N-{[2-fluoro-4-(3-{[1-(prop-2-enoyl)piperidin-4-yl]amino}-1H-pyrazolo[3,4-b]pyridin-4-yl)phenyl]methyl}benzamide] | 1.87 | 897 | 1560 | 834 | < 10
9 | C=CC(=O)N1CCC(Nc2n[nH]c3nccc(-c4ccc(CNC(=O)c5noc(C(C)(C)C)n5)c(F)c4)c23)CC1 [Example 105, 5-tert-butyl-N-{[2-fluoro-4-(3-{[1-(prop-2-enoyl)piperidin-4-yl]amino}-1H-pyrazolo[3,4-b]pyridin-4-yl)phenyl]methyl}-1,2,4-oxadiazole-3-carboxamide] | 0.457 | 312 | 470 | 1028 | < 10
10 | C=CC(=O)N1CC(Nc2n[nH]c3nccc(-c4ccc(CNC(=O)c5ccc(C(C)(C)C)cc5)c(F)c4)c23)C1 [Example 106, 4-tert-butyl-N-{[2-fluoro-4-(3-{[1-(prop-2-enoyl)azetidin-3-yl]amino}-1H-pyrazolo[3,4-b]pyridin-4-yl)phenyl]methyl}benzamide] | > 10000 | > 10000 | > 10000 |  | 
11 | C=CC(=O)N1CC(Nc2n[nH]c3nccc(-c4ccc(CNC(=O)c5noc(C(C)(C)C)n5)c(F)c4)c23)C1 [Example 107, 5-tert-butyl-N-{[2-fluoro-4-(3-{[1-(prop-2-enoyl)azetidin-3-yl]amino}-1H-pyrazolo[3,4-b]pyridin-4-yl)phenyl]methyl}-1,2,4-oxadiazole-3-carboxamide] | 528 | > 10000 | > 10000 | >100 | 
12 | CC(C)(C)c1nc(C(=O)NCc2ccc(-c3ccnc4[nH]nc(N5CC[C@@H](N)C5)c34)cc2F)no1 [Example 108, N-[(4-{3-[(3R)-3-aminopyrrolidin-1-yl]-1H-pyrazolo[3,4-b]pyridin-4-yl}-2-fluorophenyl)methyl]-5-tert-butyl-1,2,4-oxadiazole-3-carboxamide] | 1.77 | 1730 | 1650 |  | < 10
13 | CC(C)(C)c1nc(C(=O)NCc2ccc(-c3ccnc4[nH]nc(NC5CCNCC5)c34)cc2F)no1 [Example 109, 5-tert-butyl-N-[(2-fluoro-4-{3-[(piperidin-4-yl)amino]-1H-pyrazolo[3,4-b]pyridin-4-yl}phenyl)methyl]-1,2,4-oxadiazole-3-carboxamide] | 30.1 | 4180 | 8400 |  | 
14 | CC#CC(=O)N1CC[C@@H](Nc2n[nH]c3nccc(-c4ccc(CNC(=O)c5ccc(C(F)(F)F)cc5)c(F)c4)c23)C1 [Example 110, N-{[4-(3-{[(3R)-1-(but-2-ynoyl)pyrrolidin-3-yl]amino}-1H-pyrazolo[3,4-b]pyridin-4-yl)-2-fluorophenyl]methyl}-4-(trifluoromethyl)benzamide] | 1.89 | 66 | 167 | 88 | < 10
15 | CC#CC(=O)N1CC[C@@H](Nc2n[nH]c3nccc(-c4ccc(CNC(=O)c5cc(C(C)(C)C)on5)c(F)c4)c23)C1 [Example 111, N-{[4-(3-{[(3R)-1-(but-2-ynoyl)pyrrolidin-3-yl]amino}-1H-pyrazolo[3,4-b]pyridin-4-yl)-2-fluorophenyl]methyl}-5-tert-butyl-1,2-oxazole-3-carboxamide] | 0.18 | 92 | 107 | 594 | < 10
16 | CC#CC(=O)N1CC[C@@H](Nc2n[nH]c3nccc(-c4ccc(CNC(=O)c5ccc(OC)cc5)c(F)c4)c23)C1 [Example 112, N-{[4-(3-{[(3R)-1-(but-2-ynoyl)pyrrolidin-3-yl]amino}-1H-pyrazolo[3,4-b]pyridin-4-yl)-2-fluorophenyl]methyl}-4-methoxybenzamide] | 4.07 | 48 | 100 | 24 | < 10
